Assays:
Liver microsome [1] = experiment: Drug metabolism in pooled human liver microsomes assessed as formation of (3-methyl-4-(2-(piperazin-1-yl)phenylthio)phenyl)methanol after 30 mins by Michaelis-Menten plot analysis in presence of NADPH regenerating system with NADP+; format: ADME; conditions: 0.5 h, read-out: Km(app)
Cytochrome P450 1A2 = biological target: T1, Cytochrome P450 1A2 (Homo sapiens, UniProt P05177); experiment: Activity of human recombinant CYP1A2 expressed in microsomes isolated from human AHH-1 cells assessed as enzyme-mediated 3-(2,4-dimethylphenylthio)-4-(piperazin-1-yl)phenol formation at 8 to 50 uM after 120 mins by HPLC/MS-MS analysis in presence of NADPH regenerating system with NADP+; format: ADME, cell-free; conditions: 2 h
T1 sequence (P05177 whole entry): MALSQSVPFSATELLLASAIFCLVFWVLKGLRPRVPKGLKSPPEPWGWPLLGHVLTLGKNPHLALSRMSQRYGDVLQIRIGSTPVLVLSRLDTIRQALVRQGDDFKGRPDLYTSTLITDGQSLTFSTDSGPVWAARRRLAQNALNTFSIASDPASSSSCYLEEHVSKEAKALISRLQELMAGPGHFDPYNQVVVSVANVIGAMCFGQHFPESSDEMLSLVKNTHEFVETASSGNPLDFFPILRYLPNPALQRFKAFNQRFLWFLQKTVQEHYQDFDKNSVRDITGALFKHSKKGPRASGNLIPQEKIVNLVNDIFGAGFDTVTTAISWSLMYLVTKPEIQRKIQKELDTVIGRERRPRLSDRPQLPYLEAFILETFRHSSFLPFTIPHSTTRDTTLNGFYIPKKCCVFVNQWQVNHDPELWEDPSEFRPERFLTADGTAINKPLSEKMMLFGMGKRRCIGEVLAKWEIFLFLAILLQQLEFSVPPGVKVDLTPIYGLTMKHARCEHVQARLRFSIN

[2] = biological target: T2, Flavin-containing monooxygenase 3 (Homo sapiens, UniProt P31513); experiment: Activity of human recombinant FMO3 expressed in microsomes isolated from baculovirus infected insect BTI-TN-5B1-4 cells assessed as enzyme-mediated 3-methyl-4-(2-(piperazin-1-yl)phenylthio)benzoic acid formation at 8 to 50 uM after 120 mins by HPLC/MS-MS analysis in presence of NADPH regenerating system with NADP+; format: ADME; conditions: 2 h
T2 sequence (P31513 whole entry): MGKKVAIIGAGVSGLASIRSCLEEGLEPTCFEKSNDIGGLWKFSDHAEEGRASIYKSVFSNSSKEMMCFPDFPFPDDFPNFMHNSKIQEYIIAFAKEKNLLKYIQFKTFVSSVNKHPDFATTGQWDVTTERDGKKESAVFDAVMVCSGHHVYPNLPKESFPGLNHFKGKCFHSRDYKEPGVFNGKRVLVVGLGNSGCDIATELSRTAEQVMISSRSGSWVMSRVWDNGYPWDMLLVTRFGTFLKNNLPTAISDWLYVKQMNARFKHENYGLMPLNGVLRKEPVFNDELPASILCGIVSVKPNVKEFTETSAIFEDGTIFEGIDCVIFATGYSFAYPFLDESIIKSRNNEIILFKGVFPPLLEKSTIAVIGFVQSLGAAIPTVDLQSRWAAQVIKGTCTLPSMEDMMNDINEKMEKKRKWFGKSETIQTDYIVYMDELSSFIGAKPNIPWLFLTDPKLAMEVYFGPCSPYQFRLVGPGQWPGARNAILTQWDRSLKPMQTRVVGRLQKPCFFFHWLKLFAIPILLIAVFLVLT

Liver microsome [3] = experiment: Drug metabolism in pooled human liver microsomes assessed as formation of 4-(2-(2,4-dimethylphenylthio)phenyl)piperazin-1-ol after 30 mins by Michaelis-Menten plot analysis in presence of NADPH regenerating system with NADP+; format: ADME; conditions: 0.5 h, read-out: Km(app)
Cytochrome P450 2C8 = biological target: T3, Cytochrome P450 2C8 (Homo sapiens, UniProt P10632); experiment: Activity of human recombinant CYP2C8 expressed in microsomes isolated from human AHH-1 cells assessed as enzyme-mediated 1-(2-(2,4-dimethylphenylsulfinyl)phenyl)piperazine formation at 8 to 50 uM after 120 mins by HPLC/MS-MS analysis in presence of NADPH regenerating system with NADP+; format: ADME, cell-free; conditions: 2 h
T3 sequence (P10632 whole entry): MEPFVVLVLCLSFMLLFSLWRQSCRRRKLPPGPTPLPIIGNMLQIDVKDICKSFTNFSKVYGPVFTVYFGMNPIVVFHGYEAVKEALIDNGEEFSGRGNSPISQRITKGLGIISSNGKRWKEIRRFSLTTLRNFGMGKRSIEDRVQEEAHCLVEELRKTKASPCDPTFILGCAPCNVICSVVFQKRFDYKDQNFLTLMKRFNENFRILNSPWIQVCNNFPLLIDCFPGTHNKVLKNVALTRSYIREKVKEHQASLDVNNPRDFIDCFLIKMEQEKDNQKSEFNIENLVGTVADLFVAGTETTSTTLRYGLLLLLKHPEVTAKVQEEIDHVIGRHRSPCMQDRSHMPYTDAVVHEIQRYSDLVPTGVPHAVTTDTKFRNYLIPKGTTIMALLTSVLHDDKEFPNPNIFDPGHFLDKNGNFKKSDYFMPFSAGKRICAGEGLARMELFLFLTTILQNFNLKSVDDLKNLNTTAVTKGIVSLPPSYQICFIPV

Liver microsome [4] = experiment: Drug metabolism in pooled human liver microsomes assessed as formation of 1-(2-(2,4-dimethylphenylsulfinyl)phenyl)piperazine after 30 mins by Michaelis-Menten plot analysis in presence of NADPH regenerating system with NADP+; format: ADME; conditions: 0.5 h, read-out: Km(app)
Cytochrome P450 2B6 = biological target: T4, Cytochrome P450 2B6 (Homo sapiens, UniProt P20813); experiment: Activity of human recombinant CYP2B6 expressed in microsomes isolated from human AHH-1 cells assessed as enzyme-mediated 4-(2-(2,4-dimethylphenylthio)phenyl)piperazin-1-ol formation at 8 to 50 uM after 120 mins by HPLC/MS-MS analysis in presence of NADPH regenerating system with NADP+; format: ADME, cell-free; conditions: 2 h
T4 sequence (P20813 whole entry): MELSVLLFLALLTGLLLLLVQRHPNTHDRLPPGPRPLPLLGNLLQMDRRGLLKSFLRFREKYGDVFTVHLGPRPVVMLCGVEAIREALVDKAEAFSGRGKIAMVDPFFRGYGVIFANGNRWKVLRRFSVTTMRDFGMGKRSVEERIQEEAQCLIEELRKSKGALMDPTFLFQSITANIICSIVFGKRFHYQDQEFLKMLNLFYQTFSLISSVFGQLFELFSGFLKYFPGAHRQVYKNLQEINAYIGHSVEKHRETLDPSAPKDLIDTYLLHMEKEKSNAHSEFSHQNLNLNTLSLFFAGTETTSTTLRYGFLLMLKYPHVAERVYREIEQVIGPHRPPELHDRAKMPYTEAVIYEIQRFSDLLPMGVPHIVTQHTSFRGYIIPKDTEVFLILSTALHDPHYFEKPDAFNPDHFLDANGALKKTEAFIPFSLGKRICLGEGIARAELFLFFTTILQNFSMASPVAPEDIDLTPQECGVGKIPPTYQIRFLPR

Cytochrome P450 2D6 = Cytochrome P450 2D6 (Homo sapiens, UniProt P10635); experiment: Activity of human recombinant CYP2D6 expressed in microsomes isolated from human AHH-1 cells assessed as enzyme-mediated 3-(2,4-dimethylphenylthio)-4-(piperazin-1-yl)phenol formation at 8 to 50 uM after 120 mins by HPLC/MS-MS analysis in presence of NADPH regenerating system with NADP+; format: ADME, cell-free; conditions: 2 h
Sequence of Cytochrome P450 2D6 (P10635 whole entry): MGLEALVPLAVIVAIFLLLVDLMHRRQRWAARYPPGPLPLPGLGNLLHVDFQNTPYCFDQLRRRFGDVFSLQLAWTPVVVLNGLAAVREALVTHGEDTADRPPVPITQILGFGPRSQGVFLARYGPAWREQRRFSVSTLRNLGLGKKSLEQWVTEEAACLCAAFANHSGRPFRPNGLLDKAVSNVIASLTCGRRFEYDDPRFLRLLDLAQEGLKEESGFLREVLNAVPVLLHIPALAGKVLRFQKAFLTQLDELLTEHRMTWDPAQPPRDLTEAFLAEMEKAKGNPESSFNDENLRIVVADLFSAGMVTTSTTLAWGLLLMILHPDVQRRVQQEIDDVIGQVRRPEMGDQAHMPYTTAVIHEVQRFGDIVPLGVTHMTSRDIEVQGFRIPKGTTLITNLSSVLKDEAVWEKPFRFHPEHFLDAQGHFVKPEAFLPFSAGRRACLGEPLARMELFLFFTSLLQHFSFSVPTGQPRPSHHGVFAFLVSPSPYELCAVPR

With `Br.Cc1ccc(Sc2ccccc2N2CCNCC2)c(C)c1` [VORTIOXETINE HYDROBROMIDE] the Km (Liver microsome [1]) was 231 µM, the Drug metabolism (Cytochrome P450 1A2) was “metabolite_not_detected” and the Drug metabolism [2] was “metabolite_not_detected”. For the same compound, the Km (Liver microsome [3]) was 300 µM, the Drug metabolism (Cytochrome P450 2C8) was “metabolite_detected” and the Km (Liver microsome [4]) was ≥ 208 µM. For the same compound, the Drug metabolism (Cytochrome P450 2B6) was “metabolite_detected” and the Drug metabolism (Cytochrome P450 2D6) was “metabolite_detected”.

Source: ChEMBL document CHEMBL3525899, “Identification of the cytochrome P450 and other enzymes involved in the in vitro oxidative metabolism of a novel antidepressant, Lu AA21004” (Drug Metab Dispos, 2012)
